Where two headings read alike, the source gives them in different places.
What was measured:
dCK-C3S-S74E [1] = experiment: Enzymatic assay (PK/LDH coupled), dC phosphorylation by dCK in the presence of UTP; type: biochemical, human; conditions: presence of UTP
Procedure: (§1) For enzymatic assays, cells were re-suspended in 20 mM TRIS, pH 8 500 mM NaCl, 0.1% BRIJ-35 and 5% glycerol buffer and one EDTA free anti-protease tablet was added (Roche). After sonication and centrifugation (30,000 × g), the supernatant was loaded on a 5 ml HisTrap FF column (GE healthcare) pre-equilibrated with 20 mM TRIS, pH 8, 500 mM NaCl, 0.01% BRIJ-35 and 5% glycerol buffer. The protein was then eluted by the same buffer containing 250 mM imidazole after a wash containing 25 mM imidazole. The eluted fraction was applied on a HiPrep 26/10 desalting column (GE healthcare) pre-equilibrated with 20 mM TRIS, pH 8, 500 mM NaCl, 5% glycerol and 0.01% BRIJ-35 buffer. Finally, protein in a 20% glycerol buffer was flash frozen in liquid nitrogen and stored at −80 °C.
Kinetic analyses were performed using a spectrophotometric continuous enzymatic-coupled assay using pyruvate kinase (PK) and lactate dehydrogenase (LDH). […] UTP is the physiological dCK-phosphate donor[46] and it was used to determine activation versus inhibition behavior. ATP was used to calculate IC50 values, as it allows the analysis of a dose response curve. The PK/LDH coupled assay is based on the conversion of phosphoenolpyruvate (PEP) and UDP/ADP to pyruvate and UTP/ATP by PK and the subsequent conversion of pyruvate to lactate by LDH. The latter step requires NADH, which is oxidized to NAD^+. NADH is fluorescent (excitation at 337 nm and emission at 460 nm), but not NAD^+. Thus, the measurement of fluorescent decrease at 460 nm is a measure of kinase activity. dCK experiments were performed in a buffer containing 50 mM HEPES, pH 7.5, 5 mM MgCl2, 1 mM DTT, and 100 mM KCl. Buffer was supplemented with PK (0.01 U/µl), LDH (0.02 U/µl), PEP (1 mM), NADH (300 µM) and compounds at varying concentrations. For UTP assays, protein concentration was 2 μM, substrate 200 µM (dC), and UTP 1 mM. For ATP assays, protein concentration was 100 nM (and 50 nM when indicated), substrate 100 µM (dC), and ATP 1 mM. All measurements were performed on a microplate reader Pherastar FS (BMG Labtech). All assays were performed in triplicate and each experiment was performed at least twice. The data are presented as mean ± SD. The results were plotted as kinetics and the velocity was determined for each condition as the slope of the linear range of the curve. For each compound concentration, the velocity of the reaction (according to V = d[P]/dt) was normalized with respect to the drug free control and velocity ratios were compared. IC50 values corresponding to enzymatic inhibition in ATP were calculated by nonlinear regression curves using GraphPad Prism software 9.4.0.

dCK-C3S-S74E [2] = experiment: Enzymatic assay (PK/LDH coupled), dC phosphorylation by dCK in the presence of ATP; type: biochemical, human; conditions: presence of ATP, read-out: ENZYMATIC ASSAY IC50
Procedure: as §1
Kinetic analyses were performed using a spectrophotometric continuous enzymatic-coupled assay using pyruvate kinase (PK) and lactate dehydrogenase (LDH). Analysis of the effect of compounds on dCK-C3S-S74E activity was performed using dC as substrate and UTP/ATP as phosphate donors. UTP is the physiological dCK-phosphate donor[46] and it was used to determine activation versus inhibition behavior. ATP was used to calculate IC50 values, as it allows the analysis of a dose response curve. The PK/LDH coupled assay is based on the conversion of phosphoenolpyruvate (PEP) and UDP/ADP to pyruvate and UTP/ATP by PK and the subsequent conversion of pyruvate to lactate by LDH. The latter step requires NADH, which is oxidized to NAD^+. NADH is fluorescent (excitation at 337 nm and emission at 460 nm), but not NAD^+. Thus, the measurement of fluorescent decrease at 460 nm is a measure of kinase activity. dCK experiments were performed in a buffer containing 50 mM HEPES, pH 7.5, 5 mM MgCl2, 1 mM DTT, and 100 mM KCl. Buffer was supplemented with PK (0.01 U/µl), LDH (0.02 U/µl), PEP (1 mM), NADH (300 µM) and compounds at varying concentrations. For UTP assays, protein concentration was 2 μM, substrate 200 µM (dC), and UTP 1 mM. For ATP assays, protein concentration was 100 nM (and 50 nM when indicated), substrate 100 µM (dC), and ATP 1 mM. All measurements were performed on a microplate reader Pherastar FS (BMG Labtech). All assays were performed in triplicate and each experiment was performed at least twice. The data are presented as mean ± SD. The results were plotted as kinetics and the velocity was determined for each condition as the slope of the linear range of the curve. For each compound concentration, the velocity of the reaction (according to V = d[P]/dt) was normalized with respect to the drug free control and velocity ratios were compared. IC50 values corresponding to enzymatic inhibition in ATP were calculated by nonlinear regression curves using GraphPad Prism software 9.4.0.

CCRF-CEM cell line = experiment: dCK cellular assay: CCRF-CEM proliferation in the presence of dT and dC; type: cell-based, human
Procedure: The dCK cellular assay was set up to assess the ability to inhibit dCK activity in a cellular model. The model was developed with a T-cell acute lymphoblastic leukemia cell line (CCRF-CEM), because of its high dependence on the SP, thus on dCK activity. Cellular assays were performed to assess the inhibition of cell proliferation under two conditions: (i) in the presence of the compound alone to determine the nonspecific effect on cells, independent of dCK (nonspecific toxicity) and (ii) in the presence of an inhibitor of the DNP to determine the ability of compounds to inhibit dCK and decrease tumor proliferation (activity on dCK). The inhibitor of the DNP chosen for the experiments was thymidine (dT), a physiological inhibitor of ribonucleotide reductase which arrests cell proliferation in phase S. The dTTP produced via thymidine kinase from dT acts as a RNR inhibitor by an allosteric regulation of the R1 subunit. The addition of the nucleoside deoxycytidine (dC) in the medium allows the rescue of cell proliferation by passing only through the salvage pathway, mediated by dCK. dC needs to be added exogenously to mimic physiological concentrations because it is not present in the cell culture medium, on the contrary to mouse model, in which it is naturally present in the serum. Therefore, cell proliferation under these conditions (+dT +dC) is dCK dependent and it is possible to determine the IC50 of dCK inhibitors on the inhibition of cell proliferation. Results are expressed as % cell proliferation relative to the control with DMSO.
The amount of reduced dye formed by metabolically active cells was quantified by its fluorescence measured at 560 nm (excitation) and 590 nm (emission) in a microplate reader (CLARIOstar, BMG Labtech). A blank well without cells was used as a background control. Each experiment was performed at least three times (with technical triplicates) and data are presented as the mean ± SD.

dCK-C3S-S74E [3] = experiment: Thermal shift assay (TSA); conditions: for THERMAL SHIFT ASSAY +Tm (°): mean ± SD; for ΔTm (º) (TSA): Figure 2a, mean
[4] = Homo sapiens, read-out: dCK CELLULAR ASSAY IC50 (nM), CCRF-CEM, 200 µM dT and 1 µM dC, read-out: dCK […] ASSAY IC50
[5] = Homo sapiens, Figure 2a, CCRF-CEM cell line, mean, read-out: IC50 (nM) (Cell Prolif)

Chain of dCK-C3S-S74E (P27707 whole entry S74E, form open): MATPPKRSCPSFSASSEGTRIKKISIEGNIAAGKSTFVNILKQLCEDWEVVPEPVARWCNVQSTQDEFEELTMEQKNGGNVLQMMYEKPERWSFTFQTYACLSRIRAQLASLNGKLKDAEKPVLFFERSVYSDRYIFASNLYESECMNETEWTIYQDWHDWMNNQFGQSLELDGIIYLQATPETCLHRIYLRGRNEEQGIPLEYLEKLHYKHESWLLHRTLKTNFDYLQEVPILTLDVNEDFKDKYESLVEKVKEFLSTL

ENZYMATIC ASSAY (Activation/Inhibition) (dCK-C3S-S74E [1])	IC50 (dCK-C3S-S74E [2]; [dCK] = 100 nM)	IC50 (CCRF-CEM cell line; [4])	THERMAL SHIFT ASSAY +Tm (°) (dCK-C3S-S74E [3])	IC50 (dCK-C3S-S74E [2]; [dCK] = 50 nM (footnote A))	IC50 (CCRF-CEM cell line; [5])	ΔTm (º) (TSA) (dCK-C3S-S74E [3])	IC50 (CCRF-CEM cell line; Figure 2a, CCRF-CEM cell line, mean, read-out: IC50 (nM) (Cell Prolif))	Compound
A/I	7780 ± 2330 nM	13800 ± 394 nM	10.9 ± 0.4 °	–	–	–	–	Cc1ccc(NC(=O)c2ccc(CN(C)C)cc2)cc1Nc1nc(-c2nccc(N)n2)cs1 [OR0155]
A/I	1940 ± 529 nM	3460 ± 638 nM	15.2 ± 0.0 °	–	–	–	–	Cc1ccc(OCc2ccc(CN3CCN(C)CC3)cc2)cc1Nc1nc(-c2nccc(N)n2)cs1 [OR0232]
A/I	401 ± 28 nM	918 ± 107 nM	19.4 ± 0.4 °	–	–	–	–	Cc1ccc(-c2ccc(CCCN3CCN(C)CC3)cc2)cc1Nc1nc(-c2nccc(N)n2)cs1 [OR0331]
I	–	255 ± 70 nM	21.3 ± 0.8 °	149 ± 44 nM	–	–	–	Cc1ccc(-c2ccc(CCN3CCN(C)CC3)cc2)cc1N(CC(C)C)c1nc(-c2nc(N)cc(N)n2)cs1 [OR0603]
A/I	2140 ± 387 nM	3340 ± 1450 nM	15.3 ± 0.5 °	–	–	–	–	Cc1ccc(C#Cc2ccc(CN(C)C)cc2)cc1Nc1nc(-c2nccc(N)n2)cs1 [OR0237]
–	–	–	18.6 ± 1.5 °	–	120 nM	18.61 º	–	CCCN(c1nc(-c2nc(N)cc(N)n2)cs1)c1cc(-c2ccc(S(=O)(=O)N3CCN(C)CC3)c(OC(F)(F)F)c2)ccc1C [OR0650]
–	–	84 ± 49 nM	20.5 ± 0.9 °	–	88.3 nM	20.49 º	–	Cc1ccc(-c2ccc(S(=O)(=O)N3CCN(C)CC3)cc2)cc1N(CC(C)C)c1nc(-c2nc(N)cc(N)n2)cs1 [OR0637]
–	–	–	17.8 ± 0.1 °	–	413 nM	17.75 º	–	CCN(c1nc(-c2nc(N)cc(N)n2)cs1)c1cc(-c2ccc(S(=O)(=O)N3CCN(C)CC3)cc2)ccc1C [OR0632]
–	–	–	20.6 ± 0.1 °	–	139 nM	20.6 º	–	CCCN(c1nc(-c2nc(N)cc(N)n2)cs1)c1cc(-c2ccc(OCCN3CCN(C)CC3)nc2)ccc1C [OR0629]
–	–	–	16.6 ± 0.9 °	–	169 nM	16.63 º	–	CCCN(c1nc(-c2nc(N)cc(N)n2)cs1)c1cc(-c2ccc(C(=O)N3CCOCC3)nc2)ccc1C [OR0621]
–	–	–	16.8 ± 0.7 °	–	353 nM	16.82 º	–	CCCN(c1nc(-c2nc(N)cc(N)n2)cs1)c1cc(-c2ccc(NS(=O)(=O)N3CCN(C)CC3)nc2)ccc1C [OR0625]
–	–	–	16.9 ± 0.5 °	–	614 nM	16.88 º	–	CCCN(c1nc(-c2nc(N)cc(N)n2)cs1)c1cc(-c2ccc(CN(C)C)cc2)ccc1C [OR0619]
–	–	–	13.5 ± 0.7 °	–	–	13.5 º	3180 nM	Cc1ccc(-n2cc(CNS(C)(=O)=O)nn2)cc1N(CC(C)C)c1nc(-c2nc(N)cc(N)n2)cs1 [OR0609]
–	–	–	20.7 ± 0.9 °	–	119 nM	20.72 º	–	CCCN(c1nc(-c2nc(N)cc(N)n2)cs1)c1cc(-c2ccc(S(=O)(=O)N3CCNCC3)cc2)ccc1C [OR0639]
–	–	10.5 ± 5 nM	21.1 ± 1.1 °	–	10 nM	21.11 º	–	CCCN(c1nc(-c2nc(N)cc(N)n2)cs1)c1cc(-c2ccc(S(=O)(=O)N3CCN(C)CC3)cc2Cl)ccc1C [OR0641]
–	–	–	14.7 ± 0.2 °	–	16400 nM	14.7 º	–	Cc1ccc(-c2ccc(CCN3CCN(C)CC3)cc2)cc1N(CCN)c1nc(-c2nc(N)cc(N)n2)cs1 [OR0610]
–	–	–	20.5 ± 1.2 °	–	12.1 nM	20.5 º	–	CCCN(c1nc(-c2nc(N)cc(N)n2)cs1)c1cc(-c2c(F)cc(S(=O)(=O)N3CCN(C)CC3)cc2OC)ccc1C [OR0644]
–	–	–	16.9 ± 0.5 °	–	5750 nM	16.85 º	–	CCCN(c1nc(-c2nc(N)cc(N)n2)cs1)c1cc(-c2ccc3[nH]ccc3c2)ccc1C [OR0626]
–	–	–	22.3 ± 1.1 °	–	134 nM	22.28 º	–	CCCN(c1nc(-c2nc(N)cc(N)n2)cs1)c1cc(-c2ccc(S(=O)(=O)N3CCC(N)CC3)cc2)ccc1C [OR0648]
–	–	–	16.8 ± 0.1 °	–	2740 nM	16.75 º	–	Cc1ccc(-c2ccc(S(=O)(=O)N3CCN(C)CC3)cc2)cc1N(C)c1nc(-c2nc(N)cc(N)n2)cs1 [OR0631]
I	–	–	14.5 ± 0.7 °	–	703 nM	14.5 º	–	CCCN(c1nc(-c2nc(N)cc(N)n2)cs1)c1cc(-c2cnc(N)nc2)ccc1C [OR0613]
–	–	–	16.5 ± 0.1 °	–	416 nM	16.54 º	–	CCCN(c1nc(-c2nc(N)cc(N)n2)cs1)c1cc(-c2ccc(C(=O)OC)nc2)ccc1C [OR0622]

Source: publication PMC10227015, “From a drug repositioning to a structure-based drug design approach to tackle acute lymphoblastic leukemia” (Nature Communications, 2023)
